Columns and labels:
N2A Neuroglioma = assay: Median lethal dosage (IC50) against tumor cell lines; format: cell-based; conditions: N2A neuroglioma tumor cells
Hela Cervical cancer = assay: as above; format: cell-based; conditions: Homo sapiens; Hela cervical cancer tumor cells
MDA-231 Breast cancer = assay: as above; format: cell-based; conditions: Homo sapiens, MDA-MB-231; MDA-231 breast cancer tumor cells
RKO Colorectal cancer = assay: as above; format: cell-based; conditions: Homo sapiens; RKO colorectal cancer tumor cells
B16 Melanoma = assay: as above; format: cell-based; conditions: Mus musculus; B16 melanoma tumor cells
HepG2 Liver cancer = assay: as above; format: cell-based; conditions: Homo sapiens; HepG2 liver cancer tumor cells
Nalm-6 Leukemia = assay: as above; format: cell-based; conditions: Homo sapiens; Nalm-6 leukemia tumor cells
GES1 = assay: Median lethal dosage (IC50) against normal cell lines; format: cell-based; conditions: Homo sapiens; GES1 normal cells
LO2 = assay: as above; format: cell-based; conditions: Homo sapiens, L02; LO2 normal cells
tumor cells = assay: Median lethal dosage, summary over tumor cells; format: cell-based; conditions: vast majority of the tumor cells of Table 1; read-out: median lethal dosages against tumor cells
normal cells = assay: Median lethal dosage, summary over normal cells; format: cell-based; conditions: mostly, normal cells of Table 1; read-out: median lethal dosages against normal cells
[1] = test system: colorectal cancer cells RKO; assay: Mitochondrial function by Seahorse; format: cell-based, human; conditions: Seahorse after 6 hours; concentration-dependent
Description: (§1) To further verify the effect of ethidium bromide on mitochondrial function, various cell lines were treated with ethidium bromide and mitochondrial function was tested by using Seahorse after 6 hours.

[2] = test system: pancreatic cancer cells Panel; assay: Mitochondrial function by Seahorse; format: cell-based, human; conditions: Seahorse after 6 hours; concentration-dependent
Description: as §1

[3] = test system: pancreatic cancer cells Panc1; assay: Intraperitoneal injection of pancreatic cancer cells Panc1 in nude mice; format: in vivo; conditions: for tumor in the pancreas: start 3 days after cell injection
Description: To further verify whether ethidium bromide can inhibit tumor migration in vivo, we injected 2×10^6 pancreatic cancer cells Panc1 intraperitoneally into nude mice, which were then divided into 3 groups: control group, gavage, and intravenous injection administration. Mice in the gavage-administration group were started with gavage oral administration of 20 mg/Kg ethidium bromide per day by gavage 3 days after intraperitoneal injection of pancreatic cancer cells. Mice in the intravenous administration group were administered with 5 mg/Kg ethidium bromide per day intravenously (Tail-IV) 3 days after intraperitoneal injection of pancreatic cancer cells.
In order to further investigate the anti-tumor effect of ethidium bromide on nude mice with advanced tumorigenicity and to obtain its effect on the viability of nude mice, we intraperitoneally injected the nude mice with 2×10^6 pancreatic cancer cells Panc1, which were then divided into 3 groups, the control group (no-treatment group), the early-injection group (administered intravenously after 3 days) and the late-injection group (administered intravenously after 14 days). Mice in the early injection group were administered with 5 mg/Kg ethidium bromide intravenously per day for 3 weeks 3 days after intraperitoneal injection of pancreatic cancer cells (starting intravenous administration after 3 days for about 3 weeks). Mice in the late injection group were administered with 5 mg/Kg ethidium bromide intravenously per day for 3 weeks starting 2 weeks days after intraperitoneal injection of pancreatic cancer cells (starting intravenous administration after 14 days for about 3 weeks).
In addition, we utilize the most advanced nuclear magnetic spectrometer uMR 9.4T with a 30 cm aperture magnet jointly developed by our work unit and Shanghai United Imaging Healthcare Co., LTD, as well as our self-developed GC, GPA, and VTC42 coils specially designed for abdominal scanning, and an optional PET insert system to achieve the PET-MR imaging results of the temporal and spatial integrality. The development of pancreatic cancer was followed dynamically in the control and dosing groups following intraperitoneal injection of pancreatic cancer cells. Mice were injected intraperitoneally with 2×10^6 pancreatic cancer cells, Panc1, and left for 2 weeks after which a visible tumor mass can be detected in the abdominal cavity to begin intravenous administration of 5 mg/Kg ethidium bromide for 4 weeks. […] Moreover, the abdominal cavity of the control mice was filled with ascites by the late stage (where the arrows are shown), whereas there was none in the dosing group (FIGS. 13A and 13B). […] However, clearance was not achieved mostly as in the previous results and we analyzed that it might be due to the fact that the mice were kept in a non-SPF environment during the whole administration period of MRI, thus affecting the effect of the drug.

[4] = Toxicity of ethidium bromide: routine blood, liver and kidney functions; format: in vivo, nude mice; conditions: after 4 weeks of intravenous administration
Description: Finally, we also conducted a preliminary study on the toxicity of ethidium bromide by collecting whole blood and serum from the control and the dosing groups (administered intravenously for about 1 month) and tested their routine blood, and liver and kidney functions, respectively.

[5] = test system: mTOR, p-NFkB, p-Erk, cleaved Caspase3; assay: Signaling molecules in cells by Western blotting; format: cell-based
Description: We investigated the mechanism of ethidium bromide-induced apoptosis in tumor cells. First, tumor tissues treated with ethidium bromide (mice shown in FIGS. 7 and 8, treated for 4 weeks at 20 mg/Kg per day) were subjected to SDS-Loading buffer boiling lysis and tested for associated signaling pathways by Western blotting.
In order to further determine how ethidium bromide activates phosphorylation of Erk and Caspase3 cleavage and induces apoptosis, we also tested with different cell lines treated with ethidium bromide for 10 min, 30 min, 1, 2, and 6 h.

mouse melanoma cells B16 = assay: Subcutaneous B16 melanoma in C57 mice, intraperitoneal administration; format: in vivo; conditions: intraperitoneal 10 mg/Kg
Description: In order to further test whether ethidium bromide still has strong anti-tumor activity against solid tumors in vivo, C57 mice were first injected subcutaneously with 2×10^6 mouse melanoma cells B16, and the administration was initiated after about 10 days when the subcutaneous tumor volume of the mice reached about 30 mm^3. We first treated the mice by traditional intraperitoneal administration (10 mg/Kg). […] So after 3 days, we switched to injecting every other day. […] Although the tumors of the mice in the dosing group were slightly smaller than those in the control group, the tumor suppression effect was not obvious (FIG. 18C).

[6] = Tolerability of gavage oral administration in mice; format: in vivo; conditions: gavage oral 20 mg/Kg per day
[7] = cell lines treated 10 min, 30 min, 1, 2, 6 h

Molecule `CC[n+]1c(-c2ccccc2)c2cc(N)ccc2c2ccc(N)cc21` [ethidium bromide, Ethidium bromide] has an IC50 (N2A Neuroglioma) of 15.7 µM, an IC50 (Hela Cervical cancer) of 3.35 µM and an IC50 (MDA-231 Breast cancer) of 5.4 µM. The IC50 (RKO Colorectal cancer) was 1.43 µM, the IC50 (B16 Melanoma) was 11.2 µM and the IC50 (HepG2 Liver cancer) was 8.12 µM. It also gave an IC50 (Nalm-6 Leukemia) of 1.17 µM, an IC50 (GES1) of 64.7 µM and an IC50 (LO2) of 50.7 µM. For the same molecule, the IC50 (tumor cells) was < 10 µM, the IC50 (normal cells) was > 50 µM and the “oxygen consumption, glycolysis level, glycolysis rate” value [1] was “significantly reduced”. The “oxygen consumption, glycolysis level, glycolysis rate” value [2] was “significantly reduced”, the “weight of the pancreas” value ([3]; administration group, especially intravenous injection, vs control) was “significantly smaller than that of the control group” and the body weights ([3]; dosing group, intravenous 5 mg/Kg per day, 3 weeks) was “relatively stable”. For the same molecule, the “pancreatic cancer tumor (weight) vs control” value ([3]; dosing groups, intravenous 5 mg/Kg per day, 3 weeks) was “significantly smaller than that in the control group”, the “nude mice with no tumor” value ([3]; early injection group: intravenous 5 mg/Kg per day from day 3, 3 weeks) was “More than 80%” and the “tumor in the pancreas” value ([3]; gavage 20 mg/Kg per day) was “still had a small amount of tumor, but was significantly smaller than that in the control group”. The “tumor in the pancreas” value ([3]; intravenous 5 mg/Kg per day) was “no tumor was found in the pancreas”, the “growth of pancreatic cancer in the abdominal cavity (MRI)” value ([3]; intravenous 5 mg/Kg, start 2 weeks after cell injection, 4 weeks) was “significantly inhibited, or almost completely inhibited” and the body weight ([3]; intravenous injection compared with gavage) was “did not cause a significant decrease in body weight”. The blood hemoglobin ([3]; late dosing group, intravenous 5 mg/Kg per day, 3 weeks) was “remained relatively normal”, the “tumors in the liver tissues vs control” value ([3]; late injection group) was “significantly reduced” and the “nude mice with no tumor at all” value ([3]; late injection group: intravenous 5 mg/Kg per day from day 14, 3 weeks) was “about 45%”. The “weights of liver and pancreatic tissues vs control” value ([3]; late-injected group) was “significantly smaller”, the “liver or kidney function vs control” value ([4]; serum) was “no significant difference in liver or kidney function” and the “blood routine data (hemoglobin, platelets, leukocytes)” value ([4]; whole blood) was “very normal”. For the same molecule, the “time at which mTOR was activated” value [5, 7] was 10 min, the “time at which p-Erk was activated” value [5, 7] was 1 h and the “time at which p-NFkB was activated” value [5, 7] was 30 min. For the same molecule, the “cleaved Caspase3 and Erk phosphorylation in vitro” value ([5]; in vitro cells (AGS, GES1, RKO), 3 days of treatment) was “significant increase in the phosphorylation levels of both cleaved Caspase3 and Erk”, the tumor suppression effect (mouse melanoma cells B16) was “not obvious” and the body weight (mouse melanoma cells B16; after 3 days of continuous injection) was “lose weight significantly”. The “survival of mice by the end of the experiment” value (mouse melanoma cells B16; daily 3 days then every other day) was “only 1 of the 19 mice survived” and the tolerability [6] was “well tolerated”.
